Measured values taken from PubChem BioAssay AID2060609 (Molecular Pharmacology Branch, DTP, NCI, 2025).

Test system: 855422-203-R-J1-PDC complex spheroids, viability
Experiment: Anticancer human tumor 855422-203-R-J1-PDC patient-derived bladder carcinoma cell line growth inhibition [CLK]
Settings: for IC50: curve of first compound; for viability, T/C: stronger effect = lower value; active = viability on the fitted dose curve at most 10% of control; inactive = the rest
Text: A high-throughput screen of multi-cell type tumor spheroids was designed to identify active combinations of […] and targeted small molecules. Complex spheroids include a stromal component modeled by human endothelial cells (HUVEC) and fibroblasts modeled by human mesenchymal stem cells (MSCs). The concentration ranges selected for each drug and investigational agent were based upon clinically achievable concentrations if the clinical Cmax of the agent was known.
Compounds. The drugs and investigational agents: cirtuvivint (SM08502; NSC835563), CC-671 (NSC850746), vemurafenib (NSC761431), tapotoclax (NSC804041), sotorasib (NSC818433), adagrasib (NSC831453), MRTX-1133 (NSC836407), BAY2416964 (NSC825713), copanlisib (NSC816437), inavolisib (NSC800729), abemaciclib (NSC768073), osimertinib (NSC779217), entinostat (NSC756642), eltanexor (KPT-8602, NSC794443), venetoclax (NSC766270), ceralasertib (NSC777638), bortezomib (NSC756655), olaparib (NSC753686), talazoparib (NSC767125), alisertib (NSC759677), peposertib (NSC802822), gemcitabine (NSC613327), 5-fluorouracil (NSC19893), SN-38 (NSC673596), oxaliplatin (NSC266046), paclitaxel (NSC125973), and doxorubicin (NSC123127), were obtained from the National Cancer Institute (NCI) Developmental Therapeutics Program Chemical Repository. The FDA-approved anticancer drug set is available from the Developmental Therapeutics Program at https://dtp.cancer.gov/organization/dscb/obtaining/available plates.htm. […] The stock solutions were prepared in dimethyl sulfoxide (DMSO, Sigma-Aldrich, St. Louis, MO, cat. D2650), except for the platinum complexes which were prepared in saline (Quality Biological, Gaithersburg, MD, cat. 114-055-101), at 800-fold the tested concentration and stored at -70 degrees C prior to their use. All drugs and investigational agents were tested over a range starting from a high concentration at or near the clinical Cmax and decreasing in half-log increments. If the clinical Cmax for an agent had not been determined, the highest concentration tested was 10 microM.
Cell Culture. All cells were maintained in an incubator at 37 degrees C and 5% CO2 with 95% humidity. The PDC lines were cultured according to standard operating procedures established by the NCI PDMR. Briefly, all PDCs were thawed and cultured in Matrigel-coated flasks prepared with a working solution of 1X Ham's F-12 nutrient mix, without supplementation (Invitrogen, Waltham, MA, cat. 11765054), 100 U/mL penicillin-streptomycin (Invitrogen, cat. 15140122), and 2.5% Matrigel (Corning Inc., Corning, NY, cat. 354248) for the first three passages. The 947758-054-R-J2-PDC line was cultured in 6B/Colon 1A media, which includes advanced DMEM/F-12 (Thermo Fisher Scientific, cat. 12634028), 10 mM HEPES (Thermo Fisher Scientific, cat. 15630080), 1X GlutaMAX supplement (Thermo Fisher Scientific, cat. 35050061), 0.1 mg/mL primocin (InvivoGen, cat. ant-pm-2), 10% defined fetal bovine serum, heat inactivated (HyClone Laboratories Inc., cat. SH30070.03HI), 1.25 mM N-Acetyl-L-cysteine (Sigma-Aldrich, cat. A9165), 10 mM nicotinamide (Sigma-Aldrich, cat. N0636), 1X B-27 supplement (Thermo Fisher Scientific, cat. 17504044), 1X N-2 supplement (Thermo Fisher Scientific, cat. 17502048), and 10 microM Y-27632 dihydrochloride (Tocris Bioscience, cat. 1254). The 876862-298-R-J1-PDC was cultured in 6E media, which includes all 6B/Colon 1A media components plus 50% L-WRN conditioned media (ATCC, cat. CRL-3276), 50 ng/mL recombinant human EGF recombinant protein (hEGF; Thermo Fisher Scientific, cat. PHG0311), 10 ng/mL recombinant human fibroblast growth factor 10 (hGFG-10; PeproTech, cat. 100-26), 1 ng/mL recombinant human fibroblast growth factor 2 (hFGF-2; PeproTech, cat. 100-18B), and 1 µM prostaglandin E2 (PGE2; Tocris, cat. 2296). The 227483-062-R1-J1-PDC line was cultured in Panc media, containing all 6E components except hFGF-2, with the addition of 500 nM SB-431542 (Selleckchem, cat. S1067) and 10 nM gastrin (Tocris, cat. 3006). […]

[1] = second compound 0.0316 µM, first compound 0.0316 µM
[2] = second compound 0.0316 µM, first compound 0.1 µM
[3] = second compound 0.0316 µM, first compound 0.316 µM
[4] = second compound 0.0316 µM, first compound 1 µM
[5] = second compound 0.0316 µM, first compound 3.16 µM
[6] = second compound 0.0316 µM, first compound 10 µM
[7] = second compound 0.1 µM, first compound 0.0316 µM
[8] = second compound 0.1 µM, first compound 0.1 µM
[9] = second compound 0.1 µM, first compound 0.316 µM
[10] = second compound 0.1 µM, first compound 1 µM
[11] = second compound 0.1 µM, first compound 3.16 µM
[12] = second compound 0.1 µM, first compound 10 µM
[13] = second compound 0.316 µM, first compound 0.0316 µM
[14] = second compound 0.316 µM, first compound 0.1 µM
[15] = second compound 0.316 µM, first compound 0.316 µM
[16] = second compound 0.316 µM, first compound 1 µM
[17] = second compound 0.316 µM, first compound 3.16 µM
[18] = second compound 0.316 µM, first compound 10 µM
[19] = second compound 1 µM, first compound 0.0316 µM
[20] = second compound 1 µM, first compound 0.1 µM
[21] = second compound 1 µM, first compound 0.316 µM
[22] = second compound 1 µM, first compound 1 µM
[23] = second compound 1 µM, first compound 3.16 µM
[24] = second compound 1 µM, first compound 10 µM
[25] = second compound 3.16 µM, first compound 0.0316 µM
[26] = second compound 3.16 µM, first compound 0.1 µM
[27] = second compound 3.16 µM, first compound 0.316 µM
[28] = second compound 3.16 µM, first compound 1 µM
[29] = second compound 3.16 µM, first compound 3.16 µM
[30] = second compound 3.16 µM, first compound 10 µM
[31] = second compound 10 µM, first compound 0.0316 µM
[32] = second compound 10 µM, first compound 0.1 µM
[33] = second compound 10 µM, first compound 0.316 µM
[34] = second compound 10 µM, first compound 1 µM
[35] = second compound 10 µM, first compound 3.16 µM
[36] = second compound 10 µM, first compound 10 µM
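Note: spheroids exposed to drugs for seven days before readout.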
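Throughout, for viability, T/C: 100% = DMSO vehicle control wells.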

CC(CO)NC(=O)c1cc(-c2ccc(Cl)cc2)nn(-c2cnn(C)c2)c1=O (stereo unspecified) + CNC(=O)c1ccc(Nc2nc(OC3CCCC3)c3c(-c4ccc5nc(C)oc5c4)c[nH]c3n2)c(OC)c1
inactive: viability, T/C [1] 99% | viability, T/C [2] 78.6% | viability, T/C [3] 87.3% | viability, T/C [4] 95% | viability, T/C [5] 96% | viability, T/C [6] 80.9% | viability, T/C [7] 50.1% | viability, T/C [8] 50.6% | viability, T/C [9] 55% | viability, T/C [10] 63% | viability, T/C [11] 46% | viability, T/C [12] 42.5% | viability, T/C [13] 23% | viability, T/C [14] 21.9% | viability, T/C [15] 22.9% | viability, T/C [16] 22.4% | viability, T/C [17] 20.8% | viability, T/C [18] 21.8% | viability, T/C [19] 18.8% | viability, T/C [20] 19.7% | viability, T/C [21] 19.8% | viability, T/C [22] 20.7% | viability, T/C [23] 20.5% | viability, T/C [24] 21% | viability, T/C [25] 24.3% | viability, T/C [26] 20.9% | viability, T/C [27] 22.7% | viability, T/C [28] 22.2% | viability, T/C [29] 22.3% | viability, T/C [30] 20% | viability, T/C [31] 16.7% | viability, T/C [32] 21.2% | viability, T/C [33] 22.2% | viability, T/C [34] 20.5% | viability, T/C [35] 19.9% | viability, T/C [36] 20%
> 10000 nM: IC50 (second compound 0.0316 µM)
< 31.6 nM: IC50 (second compound 0.316 µM) | IC50 (second compound 1 µM) | IC50 (second compound 3.16 µM) | IC50 (second compound 10 µM)
3540 nM: IC50 (second compound 0.1 µM)

CCc1c2c(nc3ccc(O)cc13)-c1cc3c(c(=O)n1C2)COC(=O)[C@]3(O)CC + CN1CCN(c2cc(C(=O)Nc3cc4cc(-c5cnn(C)c5)ccc4cn3)ccn2)CC1
active: viability, T/C [1] 11.2% | viability, T/C [2] 5.5% | viability, T/C [3] 3.03% | viability, T/C [4] 2.59% | viability, T/C [7] 7.5% | viability, T/C [8] 4.65% | viability, T/C [9] 3.59% | viability, T/C [10] 1.4% | viability, T/C (second compound 0.316 µM, first compound 0.00316 µM) 5.85% | viability, T/C (second compound 0.316 µM, first compound 0.01 µM) 5.41% | viability, T/C [13] 5.45% | viability, T/C [14] 1.97% | viability, T/C [15] 0.54% | viability, T/C [16] 0.17% | viability, T/C (second compound 1 µM, first compound 0.00316 µM) 1.09% | viability, T/C (second compound 1 µM, first compound 0.01 µM) 0.16% | viability, T/C [19] 0.3% | viability, T/C [20] 0.23% | viability, T/C [21] 0.15% | viability, T/C [22] 0.33% | viability, T/C (second compound 3.16 µM, first compound 0.00316 µM) 0.33% | viability, T/C (second compound 3.16 µM, first compound 0.01 µM) 0.52% | viability, T/C [25] 0.44% | viability, T/C [26] 0.3% | viability, T/C [27] 0.46% | viability, T/C [28] 0.23% | viability, T/C (second compound 10 µM, first compound 0.00316 µM) 0.38% | viability, T/C (second compound 10 µM, first compound 0.01 µM) 0.17% | viability, T/C [31] 0.26% | viability, T/C [32] 2.2% | viability, T/C [33] 2.67% | viability, T/C [34] 0.19%
4.23 nM: IC50 (second compound 0.0316 µM)
inactive: viability, T/C (second compound 0.0316 µM, first compound 0.00316 µM) 61.9% | viability, T/C (second compound 0.0316 µM, first compound 0.01 µM) 14.1% | viability, T/C (second compound 0.1 µM, first compound 0.00316 µM) 24.7% | viability, T/C (second compound 0.1 µM, first compound 0.01 µM) 12.1%
< 3.16 nM: IC50 (second compound 0.1 µM) | IC50 (second compound 0.316 µM) | IC50 (second compound 1 µM) | IC50 (second compound 3.16 µM) | IC50 (second compound 10 µM)

Nc1ccn(C2OC(CO)C(O)C2(F)F)c(=O)n1 (stereo unspecified) + CNC(=O)c1ccc(Nc2nc(OC3CCCC3)c3c(-c4ccc5nc(C)oc5c4)c[nH]c3n2)c(OC)c1
< 31.6 nM: IC50 (second compound 0.0316 µM) | IC50 (second compound 0.1 µM) | IC50 (second compound 0.316 µM) | IC50 (second compound 1 µM) | IC50 (second compound 3.16 µM) | IC50 (second compound 10 µM)
inactive: viability, T/C [1] 26.9% | viability, T/C [2] 13.1% | viability, T/C [3] 13% | viability, T/C [7] 17.3% | viability, T/C [8] 12.1% | viability, T/C [9] 12.5% | viability, T/C [13] 17.4% | viability, T/C [14] 12.8% | viability, T/C [15] 12% | viability, T/C [19] 18.6% | viability, T/C [20] 21.8% | viability, T/C [21] 12.8% | viability, T/C [22] 10.1% | viability, T/C [25] 19.4% | viability, T/C [26] 16.6% | viability, T/C [27] 14.9% | viability, T/C [28] 10.2% | viability, T/C [31] 19.3% | viability, T/C [32] 16.4% | viability, T/C [33] 14.1% | viability, T/C [34] 9.84%
active: viability, T/C [4] 8.48% | viability, T/C [5] 8.78% | viability, T/C [6] 6.08% | viability, T/C [10] 11.8% | viability, T/C [11] 7.27% | viability, T/C [12] 5.69% | viability, T/C [16] 10.3% | viability, T/C [17] 5.76% | viability, T/C [18] 5.3% | viability, T/C [23] 9.02% | viability, T/C [24] 6.99% | viability, T/C [29] 8.27% | viability, T/C [30] 6.69% | viability, T/C [35] 10.5% | viability, T/C [36] 5.99%
